Reference: patent US20220017491A1, “COMPOUND INHIBITING YAP-TEAD BINDING, AND PHARMACEUTICAL COMPOSITION FOR PREVENTING OR TREATING CANCER, COMPRISING COMPOUND AS ACTIVE INGREDIENT” (KOREA RESEARCH INSTITUTE OF CHEMICAL TECHNOLOGY, priority 2018, published 2022)

How the values were obtained:
HT29 cells = test: Proliferation assay for HT29 colorectal cancer cells (CellTiter-Glo cell viability); format: cell-based; conditions: Homo sapiens, HT-29; HT29 colorectal cancer cell line, 72 hours, ATP detection
Protocol: HT-29 which is a commercially available colorectal cancer cell line was treated with trypsin-EDTA, incubated, and seeded in a 96 well plate. […] The treated cells were incubated for further 72 hours and cell viability was measured by an ATP detection method (CellTiter-Glo LuminescentCell Viability Assay, Promega).
In order to confirm the anticancer effect of the compounds according to the present invention, a proliferation assay for HT29 cells which are a colorectal cancer cell line was performed by the above method, and IC50 values as a result are listed in the following Table 4: […]

YAP-TEAD = test: Luciferase assay of YAP-TEAD binding inhibition (TEAD luciferase reporter 8XGTIIC in HEK293T cells); format: cell-based; conditions: 10 μM, 24 hours, luciferase normalized with β-galactosidase
Protocol: A Luciferase assay which allows an inhibition degree of YAP-TEAD, previously reported in Cancers 2018, 10(5), 140, was used to measure an in vitro binding inhibition rate of YAP-TEAD.
HEK293T cells were purchased from American Type Culture Collection and incubated in DMEM media containing 10% FBS, L-glutamine, and penicillin/streptomycin. The HEK293T cells were seeded in a 24 well plate at a density of 1×10^5, and coated with polyethyleneamine (10 μg/mL). These cells were transfected with 8XGTIIC-luciferase (Addgene reference 34615) which is TEAD luciferase reporter plasmid and control β-galactosidase plasmid CMV-β-Gal using a lipofectamine 2000 reagent (Life Technologies, Inc.) according to the manufacturer's manual. Thereafter, the compound of the present invention was treated at a concentration of 10 μM for 24 hours, the cells were lysed using a Reporter lysis buffer (Promega, France), luciferase activity was read with a Mithras LB940 plate reader, and then normalization was performed with β-galactosidase.

[1] = test system: AOM/DSS-induced colorectal cancer; test: Anticancer activity in AOM/DSS orthotopic syngeneic mouse model; format: in vivo, B6 mouse; conditions: intraperitoneally for three weeks; intestinal tissue FACS; FIG. 3
Protocol: In order to measure an anticancer effect in the state of immunity existing in a large intestine, a conventionally known AOM/DSS model was used to measure anticancer activity (J. Vis. Exp. (67), e4100 10.3791/4100, Cell Death & Dis. 2018, 9, 153).
A B6 mouse was adapted to an animal room for one week and then azoxymethane (AOM) was injected intraperitoneally at 10 mg/kg. After one week, the B6 mouse was supplied with a 2.5% dextran sulfate sodium (DSS) solution for one week and alternatively supplied with fresh water for two weeks, which was repeated three time, thereby causing colorectal cancer. After colorectal cancer was caused, the YAP-TEAD inhibition compound 17 of the present invention was injected intraperitoneally at 50 mg/kg, five times a week, for three weeks. After the dosing period was over, an intestine tissue was surgically isolated and the number and size of cancer tissue in the intestine tissue were measured and quantitatively analyzed, and the results are illustrated in FIGS. 1 to 3.
In addition, in order to confirm a ratio of Treg cells which play an important role in immunosuppression in cancer tissues, FACS analysis was performed. […]

| SMILES | IC50 (HT29 cells) [µM] | Inhibition(%) (YAP-TEAD) | Treg cells in cancer tissue (FACS, CD4 and Fop3) [1] |
| --- | --- | --- | --- |
| COCCCN1C(=O)c2cccc3c(NC(=O)C4CCCCN4S(=O)(=O)c4ccc5c(c4)CCO5)ccc1c23 (centres unmarked) [Compound 39] | 20.3 | 66 |  |
| COCCCN1C(=O)c2cccc3c(NC(=O)C4CCCN(S(=O)(=O)c5ccc6c(c5)CCO6)C4)ccc1c23 (centres unmarked) [Compound 34] | 13.3 | 87 |  |
| COCCCN1C(=O)c2cccc3c(NC(=O)C4CCCN(S(=O)(=O)c5ccc(Br)s5)C4)ccc1c23 (centres unmarked) [Compound 59] | 7.6 | 87 |  |
| COCCCN1C(=O)c2cccc3c(NC(=O)C4CCCCN4S(=O)(=O)c4ccc5c(c4)OCCO5)ccc1c23 (centres unmarked) [Compound 83] | 19.4 | 92 |  |
| COCCCN1C(=O)c2cccc3c(NC(=O)C4CCCN(S(=O)(=O)c5cccc6nsnc56)C4)ccc1c23 (centres unmarked) [Compound 69] | 16.8 | 94 |  |
| COCCCN1C(=O)c2cccc3c(NC(=O)C4CCCCN4S(=O)(=O)c4ccc(Cl)s4)ccc1c23 (centres unmarked) [Compound 30] | 22 | 56 |  |
| COCCCN1C(=O)c2cccc3c(NC(=O)C4CCCCN4S(=O)(=O)c4ccc(-c5ccccn5)s4)ccc1c23 (centres unmarked) [Compound 118] | 2.9 | 84 |  |
| COCCCN1C(=O)c2cccc3c(NC(=O)C4CCCCN4S(=O)(=O)c4cccs4)ccc1c23 (centres unmarked) [Compound 17] | 6.91 | 78 | Treg cell decrease was confirmed |
| COCCCN1C(=O)c2cccc3c(NC(=O)C4CCCCN4S(=O)(=O)c4c(Cl)nc5sccn45)ccc1c23 (centres unmarked) [Compound 78] | 30.1 | 53 |  |
| N#CCCCN1C(=O)c2cccc3c(NC(=O)C4CCCCN4S(=O)(=O)c4cccs4)ccc1c23 (centres unmarked) [Compound 20] | 32.3 | 65 |  |
| COCCCN1C(=O)c2cccc3c(NC(=O)C4CCCN(S(=O)(=O)c5ccc(Cl)s5)C4)ccc1c23 (centres unmarked) [Compound 29] | 12.2 | 87 |  |
| COCCCN1C(=O)c2cccc3c(NC(=O)C4CCCCN4S(=O)(=O)c4cc5c(s4)CCCC5)ccc1c23 (centres unmarked) [Compound 84] | 8.2 | 83 |  |
| COCCCN1C(=O)c2cccc3c(NC(=O)C4CCCN(S(=O)(=O)c5scnc5C)C4)ccc1c23 (centres unmarked) [Compound 64] | 24.7 | 76 |  |
| CN(CCCN1C(=O)c2cccc3c(NC(=O)C4CCCCN4S(=O)(=O)c4cccs4)ccc1c23)S(C)(=O)=O (centres unmarked) [Compound 117] | 12 | 85 |  |
| COCCCN1C(=O)c2cccc3c(NC(=O)C4CCCCN4S(=O)(=O)c4ccc(OC)c(OC)c4)ccc1c23 (centres unmarked) [Compound 42] | 44.5 | 68 |  |
| N#CCCN1C(=O)c2cccc3c(NC(=O)C4CCCCN4S(=O)(=O)c4cccs4)ccc1c23 (centres unmarked) [Compound 21] | 34.2 | 59 |  |
| COc1ccc(CCN2C(=O)c3cccc4c(NC(=O)C5CCCCN5S(=O)(=O)c5cccs5)ccc2c34)cc1 (centres unmarked) [Compound 15] | 2.99 | 81 |  |
| COCCCN1C(=O)c2cccc3c(NC(=O)C4CCCN(S(=O)(=O)c5c(Cl)nc6sccn56)C4)ccc1c23 (centres unmarked) [Compound 68] | 10.9 | 81 |  |
| COCCCN1C(=O)c2cccc3c(NC(=O)C4CCCCN4S(=O)(=O)c4cccc5nsnc45)ccc1c23 (centres unmarked) [Compound 79] | 14 | 71 |  |
| COCCCN1C(=O)c2cccc3c(NC(=O)C4CCCCN4S(=O)(=O)c4cc(Br)c(Br)s4)ccc1c23 (centres unmarked) [Compound 80] | 5.6 | 77 |  |
| COCCCN1C(=O)c2cccc3c(NC(=O)C4CCCN(S(=O)(=O)c5ccc6c(c5)OCO6)C4)ccc1c23 (centres unmarked) [Compound 56] | 9.8 | 63 |  |
| COCCCN1C(=O)c2cccc3c(NC(=O)C4CCCN(S(=O)(=O)c5cccc6cccnc56)C4)ccc1c23 (centres unmarked) [Compound 75] | 16.8 | 93 |  |
| COCCCN1C(=O)c2cccc3c(NC(=O)C4CCCCN4S(=O)(=O)c4sc(NC(C)=O)nc4C)ccc1c23 (centres unmarked) [Compound 43] | 35 | 50 |  |
| COC(C)(C)CCN1C(=O)c2cccc3c(NC(=O)C4CCCCN4S(=O)(=O)c4cccs4)ccc1c23 (centres unmarked) [Compound 58] | 10.2 | 65 |  |
| COCCCN1C(=O)c2cccc3c(NC(=O)C4CCCCN4S(=O)(=O)c4ccc(Br)s4)ccc1c23 (centres unmarked) [Compound 60] | 12.5 | 67 |  |
| COCCCN1C(=O)c2cccc3c(NC(=O)C4CCCN(S(=O)(=O)c5ccc(OCCOC)c(C)c5)C4)ccc1c23 (centres unmarked) [Compound 122] | 6.5 | 68 |  |
| O=C(Nc1ccc2c3c(cccc13)C(=O)N2CCc1ccc([N+](=O)[O-])cc1)C1CCCCN1S(=O)(=O)c1cccs1 (centres unmarked) [Compound 16] | 4.24 | 77 |  |
| COCCCN1C(=O)c2cccc3c(NC(=O)C4CCCCN4S(=O)(=O)c4c(Cl)sc(Cl)c4Br)ccc1c23 (centres unmarked) [Compound 66] | 8.7 | 59 |  |
| COCCCN1C(=O)c2cccc3c(NC(=O)C4CCCN(S(=O)(=O)c5sc(NC(C)=O)nc5C)C4)ccc1c23 (centres unmarked) [Compound 47] | 29.2 |  |  |
| Cc1ccc(S(=O)(=O)N2CCCCC2C(=O)Nc2ccc3c4c(cccc24)C(=O)N3Cc2ccccc2)cc1 (centres unmarked) [Compound 5] | 7.1 |  |  |
